# The source made the active and inactive calls. No rule for the calls is given here.
# Biological target: Hepatocyte nuclear factor 4-alpha (Homo sapiens) (UniProt P41235)
# Test: HNF4 dimerization inhibitors, late-stage follow-up, counter-screen for ABHD5-PLIN5 interaction inhibitor project, biochemical, luminescence, dose response, round 3 (AID 652137)
# Conditions: luminescence biochemical assay
# Sequence of Hepatocyte nuclear factor 4-alpha (Homo sapiens) (P41235 whole entry, looked up): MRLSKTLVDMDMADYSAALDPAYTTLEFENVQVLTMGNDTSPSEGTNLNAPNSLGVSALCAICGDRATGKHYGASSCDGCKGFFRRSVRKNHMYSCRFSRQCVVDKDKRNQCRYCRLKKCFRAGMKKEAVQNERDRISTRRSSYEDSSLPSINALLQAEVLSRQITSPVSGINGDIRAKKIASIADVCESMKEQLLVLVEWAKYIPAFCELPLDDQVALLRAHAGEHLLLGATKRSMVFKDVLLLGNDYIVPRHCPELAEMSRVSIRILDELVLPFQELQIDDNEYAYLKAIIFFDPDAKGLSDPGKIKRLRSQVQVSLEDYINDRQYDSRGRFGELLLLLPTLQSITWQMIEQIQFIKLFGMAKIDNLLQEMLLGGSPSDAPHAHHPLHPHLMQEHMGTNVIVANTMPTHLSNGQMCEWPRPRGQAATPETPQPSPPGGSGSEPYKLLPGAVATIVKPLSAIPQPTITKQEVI
row,IC50,Compound
1,> 39.8 µM (inactive),CCCCCCCNC(=O)Nc1ccc2c(c1)N(C)C(=O)c1ccccc1S2
2,> 39.8 µM (inactive),CCCCCCNC(=O)Nc1ccc2c(c1)N(C)C(=O)c1ccccc1S2
3,> 39.8 µM (inactive),CCCCNC(=O)Nc1ccc2c(c1)N(C)C(=O)c1ccccc1S2
4,> 39.8 µM (inactive),CCCCCNC(=O)Nc1ccc2c(c1)N(C)C(=O)c1ccccc1S2
5,> 39.8 µM (inactive),CN1C(=O)c2ccccc2Sc2ccc(NC(=O)NCCCc3ccccc3)cc21
